From ChEMBL document CHEMBL1909046, “DrugMatrix in vitro pharmacology data”

How the values were obtained:
[1] = target: Beta-3 adrenergic receptor (Homo sapiens, UniProt P13945); assay: DRUGMATRIX: Adrenergic beta3 radioligand binding (ligand: [125I] Cyanopindolol); assay type: cell membranes, HEK293, Membrane; details: hek293; Not Active = under 50% inhibition at 10 µM
[2] = target: Sodium-dependent noradrenaline transporter (Homo sapiens, UniProt P23975); assay: DRUGMATRIX: Norepinephrine Transporter radioligand binding (ligand: [125I] RTI-55); assay type: cell membranes, MDCK, Membrane; details: mdck; Not Active = under 50% inhibition at 10 µM
[3] = target: 5-hydroxytryptamine receptor 4 (Cavia porcellus, UniProt O70528); assay type: cell membranes, Dunkin-Hartley, Striatum, Membrane; note: in other assays of this panel Not Active means under 50% inhibition at 10 µM
[4] = target: Substance-P receptor (Homo sapiens, UniProt P25103); assay type: cell membranes, CHO, Membrane; details: cho; note: in other assays of this panel Not Active means under 50% inhibition at 10 µM
[5] = target: T1, Muscarinic acetylcholine receptor M2 (Homo sapiens, UniProt P08172); assay type: cell membranes, CHO-K1, Membrane; details: cho-k1; note: in other assays of this panel Not Active means under 50% inhibition at 10 µM
T1 sequence (P08172 whole entry): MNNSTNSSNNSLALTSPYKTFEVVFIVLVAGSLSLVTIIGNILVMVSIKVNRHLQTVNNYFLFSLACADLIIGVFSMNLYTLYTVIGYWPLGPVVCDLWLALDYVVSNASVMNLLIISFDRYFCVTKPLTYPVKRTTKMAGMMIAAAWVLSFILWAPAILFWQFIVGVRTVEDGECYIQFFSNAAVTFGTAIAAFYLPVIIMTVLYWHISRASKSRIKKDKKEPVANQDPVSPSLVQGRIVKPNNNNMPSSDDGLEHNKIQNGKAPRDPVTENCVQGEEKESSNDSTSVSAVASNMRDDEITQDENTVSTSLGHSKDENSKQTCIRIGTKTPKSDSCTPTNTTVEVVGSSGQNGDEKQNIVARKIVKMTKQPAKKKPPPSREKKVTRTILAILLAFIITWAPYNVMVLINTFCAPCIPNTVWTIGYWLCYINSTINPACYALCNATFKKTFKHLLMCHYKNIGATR

[6] = target: Protein kinase C alpha type (Homo sapiens, UniProt P17252); assay type: cell-based; details: sf9;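 note: inhibition of PKCalpha kinase activity measured in an enzyme assay with histone as the phosphorylation substrate; in other assays of this panel Not Active means under 50% inhibition at 10 µM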

Chain of 5-hydroxytryptamine receptor 4 (O70528 whole entry): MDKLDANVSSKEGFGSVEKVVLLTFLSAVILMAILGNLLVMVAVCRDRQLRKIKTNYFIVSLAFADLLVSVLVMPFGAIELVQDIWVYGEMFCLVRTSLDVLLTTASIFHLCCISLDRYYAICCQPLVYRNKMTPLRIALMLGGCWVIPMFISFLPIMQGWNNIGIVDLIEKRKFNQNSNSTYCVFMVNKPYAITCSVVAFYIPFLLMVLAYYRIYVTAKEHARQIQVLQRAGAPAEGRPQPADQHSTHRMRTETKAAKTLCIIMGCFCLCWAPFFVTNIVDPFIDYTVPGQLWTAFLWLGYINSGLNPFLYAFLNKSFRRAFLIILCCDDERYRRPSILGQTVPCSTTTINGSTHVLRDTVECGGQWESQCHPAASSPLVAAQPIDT
Chain of Substance-P receptor (P25103 whole entry): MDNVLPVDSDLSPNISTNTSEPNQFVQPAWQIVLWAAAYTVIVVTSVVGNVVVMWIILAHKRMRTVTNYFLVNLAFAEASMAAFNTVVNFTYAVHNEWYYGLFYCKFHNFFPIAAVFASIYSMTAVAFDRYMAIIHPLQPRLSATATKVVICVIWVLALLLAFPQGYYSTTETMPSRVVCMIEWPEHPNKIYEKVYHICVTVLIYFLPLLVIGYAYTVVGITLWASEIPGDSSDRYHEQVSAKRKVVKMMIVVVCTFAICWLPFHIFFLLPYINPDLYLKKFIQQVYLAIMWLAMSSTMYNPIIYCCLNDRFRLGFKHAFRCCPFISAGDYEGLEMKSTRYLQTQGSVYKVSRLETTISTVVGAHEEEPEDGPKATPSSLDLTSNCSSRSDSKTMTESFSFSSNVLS
Chain of Sodium-dependent noradrenaline transporter (P23975 whole entry): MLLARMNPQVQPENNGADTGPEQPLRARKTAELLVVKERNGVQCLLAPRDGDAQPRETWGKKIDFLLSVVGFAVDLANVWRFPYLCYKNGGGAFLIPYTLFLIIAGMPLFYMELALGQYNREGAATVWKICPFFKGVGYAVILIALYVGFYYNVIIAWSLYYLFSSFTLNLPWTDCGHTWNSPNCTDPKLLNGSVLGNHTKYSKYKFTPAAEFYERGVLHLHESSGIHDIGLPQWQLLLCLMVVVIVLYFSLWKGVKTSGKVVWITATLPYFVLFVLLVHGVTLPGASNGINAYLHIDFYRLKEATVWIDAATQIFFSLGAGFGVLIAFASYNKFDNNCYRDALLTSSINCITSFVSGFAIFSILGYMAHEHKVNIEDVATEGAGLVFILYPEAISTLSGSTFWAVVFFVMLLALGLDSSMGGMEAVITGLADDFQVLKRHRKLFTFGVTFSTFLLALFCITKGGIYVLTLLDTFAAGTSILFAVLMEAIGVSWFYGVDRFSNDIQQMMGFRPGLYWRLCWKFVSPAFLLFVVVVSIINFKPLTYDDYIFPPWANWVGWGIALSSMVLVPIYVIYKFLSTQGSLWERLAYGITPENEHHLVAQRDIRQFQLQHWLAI
Chain of Beta-3 adrenergic receptor (P13945 whole entry): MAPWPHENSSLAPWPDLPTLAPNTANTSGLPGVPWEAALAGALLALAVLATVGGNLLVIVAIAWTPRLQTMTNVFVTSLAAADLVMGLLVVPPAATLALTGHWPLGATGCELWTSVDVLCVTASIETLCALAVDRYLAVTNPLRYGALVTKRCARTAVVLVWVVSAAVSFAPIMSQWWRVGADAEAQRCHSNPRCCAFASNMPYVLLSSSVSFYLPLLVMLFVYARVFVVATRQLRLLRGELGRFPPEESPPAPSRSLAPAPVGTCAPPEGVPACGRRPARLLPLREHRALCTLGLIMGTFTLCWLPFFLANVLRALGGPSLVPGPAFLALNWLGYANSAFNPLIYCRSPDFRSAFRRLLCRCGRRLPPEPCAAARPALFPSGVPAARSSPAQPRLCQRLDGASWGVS

CCN(CC)CCNC(=O)c1cc(S(C)(=O)=O)ccc1OC [TIAPRIDE]
Not Active: IC50 [1] | IC50 [2] | IC50 [3] | IC50 [4] | IC50 [5] | IC50 [6]

Clc1ccccc1CN1CCc2sccc2C1 [TICLOPIDINE]
Not Active: IC50 [1] | IC50 [2] | IC50 [3] | IC50 [4] | IC50 [5] | IC50 [6]

NC1CCN(c2nc3c(cc2F)c(=O)c(C(=O)O)cn3-c2ccc(F)cc2F)C1 (centres undefined) [TOSUFLOXACIN]
Not Active: IC50 [1] | IC50 [2] | IC50 [3] | IC50 [4] | IC50 [5] | IC50 [6]

O=C(Nc1ccc(Br)cc1)c1cc(Br)cc(Br)c1O [TRIBROMSALAN]
Not Active: IC50 [1] | IC50 [2] | IC50 [3] | IC50 [4] | IC50 [5] | IC50 [6]

CC(c1cc2ccccc2s1)N(O)C(N)=O (centres undefined) [ZILEUTON]
Not Active: IC50 [1] | IC50 [2] | IC50 [3] | IC50 [4] | IC50 [5] | IC50 [6]

MANGANESE CHLORIDE ANHYDROUS
Not Active: IC50 [1] | Ki [1] | IC50 [2] | Ki [2] | IC50 [3] | Ki [3] | IC50 [4] | Ki [4] | IC50 [5] | Ki [5] | IC50 [6] | Ki [6]

SODIUM ORTHOVANAD
Not Active: IC50 [1] | Ki [1] | IC50 [2] | Ki [2] | IC50 [3] | Ki [3] | IC50 [4] | Ki [4] | IC50 [5] | Ki [5] | IC50 [6] | Ki [6]
